# What was measured:
# hPSC-CMs = assay: Immunofluorescent imaging, morphological and sarcomere analysis; assay type: cell-based, human; conditions: for cell area compared to Control: single maturation cue on flat surface, 3 weeks
# Description: For these studies, and all subsequent functional assays, the full ComboMat platform (Let7i+NP+T3) was compared to a viral vector Control (EV+Flat+No T3) and each maturation cue in isolation: NP (EV+NP+No T3), T3 (EV+Flat+T3), and Let7i (Let7i+Flat+No T3). […] Sarcomeres developed with a higher degree of directionality and order on NPs, resulting in more sarcomeres in register with one another (FIG. 2B).
# […] Samples were then permeabilized with 0.1% Triton X-100 (Sigma-Aldrich) in PBS and blocked with 5% goat serum. Cells were then incubated with mouse anti-α-actinin monoclonal antibody (1:1000, Sigma-Aldrich) in 1% goat serum overnight at 4° C. After washing with PBS, the samples were stained with Alexa-594 conjugated goat-anti-mouse secondary antibody (1:200, Invitrogen) as well as Alexafluo 488 labeled Phalloidin (1:200, Invitrogen). Nuclei counterstaining was performed with Vectashield containing DAPI (Vector Labs). A Nikon AIR confocal microscope with a Nikon CFI Plan Apo VC 60× water immersion objective was used to capture detailed immunofluorescent images for sarcomere analysis while a 20× air objective was used to obtain low-powered images of cells for measuring cell binucleation percentage. Cells from both objective powers were used to measure cell size. For morphological and sarcomere analysis, hPSC-CMs were plated at 10,000 cells/cm^2. […]
# Immunofluorescent images were quantified for sarcomere alignment, pattern strength, and sarcomere length using a scanning gradient/Fourier transform script in MATLAB (Mathworks). Each image was broken into several small segments which were individually analyzed. Using a directional derivative, the image gradient for each segment was calculated to determine the local alignment of sarcomeres. The pattern strength was then determined by calculating the maximum peaks of one-dimensional Fourier transforms in the direction of the gradient. The lengths of sarcomeres were calculated by measuring the intensity profiles of the sarcomeres along this same gradient direction. […]
# DMD mutant hPSC-CMs = assay: Primary drug screen: intracellular ATP (CellTiter Glo) viability after hypotonic stress; conditions: 18 hours compound incubation, then 12.5% normal osmolarity for 30 minutes, relative to DMSO control wells, concentration not stated (10^-8 to 10^-5 M tested)
# [1] = tested on: mature DMD mutant hPSC-CMs; assay: nanoMEA beat rate variability (Mean ΔBI), mature diseased cells; assay type: cell-based, human
# Description: Cells were exposed to various concentrations of nitrendipine or sildenafil citrate for seven days and measured their beat rate variability. […] Briefly, the ion permeable polymer Nafion (Sigma-Aldrich) was patterned onto commercial multi-well MEA plates (Axion Biosystems) via solvent-mediated capillary force lithography. Prior to cell seeding, control flat or nanoMEA Nafion surfaces were sterilized with UV-C light and then incubated for 6 hours at 37° C. with 5 μg/cm^2 human fibronectin (Life Technologies). hPSC-CMs were plated in droplet fashion at 25,000 cells per well of the MEA plate. Electrophysiological analysis of spontaneously beating cardiomyocytes was collected for 2 minutes using the AxIS software (Axion Biosystems). After raw data collection, the signal was filtered using a Butterworth band-pass filter and a 90 μV spike detection threshold. Field potential duration was automatically determined using a polynomial fit T-wave detected algorithm.
# [2] = tested on: cells exposed to Control conditions or Normal hPSC-CMs exposed to the ComboMat platform; assay: nanoMEA beat rate variability, immature or healthy cells; assay type: cell-based, human; conditions: seven days
# Description: Cells were exposed to various concentrations of nitrendipine or sildenafil citrate for seven days and measured their beat rate variability. […] Briefly, the ion permeable polymer Nafion (Sigma-Aldrich) was patterned onto commercial multi-well MEA plates (Axion Biosystems) via solvent-mediated capillary force lithography. Prior to cell seeding, control flat or nanoMEA Nafion surfaces were sterilized with UV-C light and then incubated for 6 hours at 37° C. with 5 μg/cm^2 human fibronectin (Life Technologies). hPSC-CMs were plated in droplet fashion at 25,000 cells per well of the MEA plate. Electrophysiological analysis of spontaneously beating cardiomyocytes was collected for 2 minutes using the AxIS software (Axion Biosystems). After raw data collection, the signal was filtered using a Butterworth band-pass filter and a 90 μV spike detection threshold. Field potential duration was automatically determined using a polynomial fit T-wave detected algorithm. Beat interval analysis on 30 consecutive beats was performed as previously published^26 (see Table 3).
# DMD patients = conditions: cited from earlier work
# mdx mouse = conditions: cited from earlier work
compound,measurement,setting,value
"N[C@@H](Cc1cc(I)c(Oc2ccc(O)c(I)c2)c(I)c1)C(=O)O [T3, Triiodothyronine]",impact of long-term exposure on sarcomere development and beat rate variability,"hPSC-CMs; long-term T3 exposure (7, 14, 21 days), preliminary results",negative impact
same,cell area compared to Control,hPSC-CMs,significantly larger
Let7i: Let-7i miRNA (UGAGGUAGUAGUUUGUGCU duplex) overexpressed from a lentiviral vector (listed as Homo sapiens),cell area compared to Control,hPSC-CMs,significantly larger
CN1CCc2c(c3ccccc3n2Cc2ccccc2)C1.CN1CCc2c(c3ccccc3n2Cc2ccccc2)C1.O=S(=O)(O)c1cccc2c(S(=O)(=O)O)cccc12 [MEBHYDROLIN NAPHTHALENESULFONATE],Average of % Viability,DMD mutant hPSC-CMs,172.81 ± 39.86%
CCCc1nn(C)c2c(=O)[nH]c(-c3cc(S(=O)(=O)N4CCN(C)CC4)ccc3OCC)nc12 [sildenafil],Mean ΔBI (beat rate variability) compared to DMSO carrier control,"[1]; mature (ComboMat) DMD mutant hPSC-CMs, seven days exposure, various concentrations",no effect
same,impact on beat rate variability,[2],Neither nitrendipine nor sildenafil had a significant impact
same,"cardiac symptoms in DMD patients (clinical trial, terminated early)",DMD patients,exacerbated cardiac symptoms
same,cardiac dysfunction in the mdx mouse,mdx mouse,showed promise in alleviating cardiac dysfunction
CCOC(=O)C1=C(C)NC(C)=C(C(=O)OC)C1c1cccc([N+](=O)[O-])c1 (centres unmarked) [NITRENDIPINE],effect on spontaneous beating,"[1]; doses higher than 1 μM, seven days",ceased spontaneous beating
same,time for benefits to wash out after removal from cell culture medium,"[1]; mature DMD mutant hPSC-CMs, Mean ΔBI after washout",≤ 48 h
same,beat rate variability level restored,"[1]; mature DMD mutant hPSC-CMs, doses up to 1 μM, seven days",< 50 ms

# From US20200224168A1, “COMPOSITIONS AND METHODS FOR ENHANCING MATURATION STATES OF HEALTHY AND DISEASED CARDIOMYOCYTES” (University of Washington, priority 2017, published 2020)
